Laboratory results as given in patent US9012497B2, “Cyclohexyl carbamate compounds as active anti-cellulite ingredients” (Symrise AG, priority 2010, dated 2015).

Columns and labels:
3T3 cells = assay: ATP assay, inhibition of proliferation; type: cell-based; conditions: Mus musculus, NIH3T3, 48 h, non-cytotoxic dilutions, mean values of at least 2 independent tests
Method: 3T3 cells (mouse […] fibroblasts) were seeded in 96-well plates. After 24 h cultivation at 37° C. and 5% CO2 in DMEM (Dulbecco's Modified Eagle Medium), cells were treated with test substances for another 48 h. […] ATP content in the cells is measured by
The inhibition of proliferation was calculated by:
[formula] wherein RLU test substance=relative luminescent units of the wells with test substance and with cells RLU control=relative luminescent units of the wells without test substance, but with cells RLU control without cells=relative luminescent units of the wells without test substance and without cells
The IC50 is calculated from the proliferation inhibition [%] in a series of non-cytotoxic dilutions of tested samples. This is the concentration at which the proliferation is 50% inhibited.

3T3-L1 cells [1] = assay: Adipogenesis assay (in vitro), Nile Red lipid staining; type: cell-based; conditions: Mus musculus, mean values of at least 2 independent tests, read-out: Adipogenesis inhibition IC50
Method: 3T3-L1 cells (mouse embryonic fibroblast-like adipocyte cell line) are seeded in a 48-well plate with collagen I-coating in a concentration of 3×10^4 cells/well. After 72 h cultivation at 37° C. and 5% CO2 in DMEM (Dulbecco's Modified Eagle Medium), enriched with 10% calf serum, various concentrations of the test substances in DMEM, enriched with 10% foetal calf serum and to which are added 1 μg/ml insulin, 0.25 μM dexamethasone and 0.5 mM IBMX (3-isobutyl-1-methylxanthine), are added and incubated for a further 48 h. A media change takes place, in that DMEM, enriched with 10% foetal calf serum and with 1 μg/ml insulin added, are applied. After renewed cultivation for 48 h, a further media change takes place, in which DMEM, enriched with 10% foetal calf serum, is applied.
After a further incubation for 72 h, the intracellularly stored lipids are quantified as a measure for the differentiation of the cells by measuring the fluorescence after staining of the lipids with the fluorescent dye Nile Red.
The inhibition of the adipogenesis in the presence of the test substances is calculated according to the following equation:
[formula] wherein RFU test substance=relative fluorescent units of the wells with test substance and with cells RFU control=relative fluorescent units of the wells without test substance, but with cells RFU control without cells=relative fluorescent units of the wells without test substance and without cells The IC50 is calculated from the adipogenesis inhibition [%] in a series of dilutions of tested samples. This is the concentration at which the adipogenesis is 50% inhibited.

lipoprotein lipase (LPL) = molecular target: T1, lipoprotein lipase (LPL) (Mus musculus, UniProt P11152); assay: Inhibition of LPL (lipogenesis assay), MUF oleate hydrolysis; type: biochemical; conditions: LPL obtained from differentiated 3T3-L1 cells; mean values of at least 2 independent tests
T1 construct: endogenous in cells; host or cells: differentiated 3T3-L1 cells (mouse); heparin-released supernatant
T1 sequence (P11152 28-474): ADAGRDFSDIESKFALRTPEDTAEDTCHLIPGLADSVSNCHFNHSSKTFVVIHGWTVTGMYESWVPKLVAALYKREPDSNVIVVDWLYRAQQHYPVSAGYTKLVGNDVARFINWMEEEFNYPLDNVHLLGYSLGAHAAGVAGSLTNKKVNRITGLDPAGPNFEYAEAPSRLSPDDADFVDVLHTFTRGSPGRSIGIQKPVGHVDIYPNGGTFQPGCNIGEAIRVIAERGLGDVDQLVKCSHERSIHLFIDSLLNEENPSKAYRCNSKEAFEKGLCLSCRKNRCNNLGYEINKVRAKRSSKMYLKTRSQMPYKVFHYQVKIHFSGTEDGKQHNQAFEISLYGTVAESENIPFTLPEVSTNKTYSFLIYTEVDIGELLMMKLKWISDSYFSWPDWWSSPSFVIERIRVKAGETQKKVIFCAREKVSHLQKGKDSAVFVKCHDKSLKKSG
Text: (§1) Lipogenesis is perceived as the storage of triglycerides in adipocytes. The inhibition of this storage can take place by means of the inhibition of the activity of extracellular lipoprotein lipase (LPL) in that the hydrolysis of extracellular triglycerides and therefore the absorption of free fatty acids by adipocytes are reduced. As a preliminary test, the inhibition of pancreatic lipase (PL) is investigated.
The results of the inhibition of the PL are used as a preliminary test and are confirmed on LPL. To obtain LPL, 3T3-L1 cells (mouse embryonic fibroblast-like adipocyte cell line) are seeded in a 6-well plate with collagen I-coating in a concentration of 3×10^5 cells/well. The cultivation and differentiation of the cells takes place analogously to the details in Example 2 (adipogenesis assay). During the differentiation LPL is increasingly expressed. The LPL is present in a membrane-bound state and is released by one hour incubation with heparin solution at 2-8° C. to the supernatant of the cells.
The LPL thus obtained, in the presence of test substances in different use concentrations, has methylumbelliferyl oleate (MUF oleate) added as the substrate. Fluorescent methylumbelliferyl (MUF) is produced by hydrolysis of the MUF oleate by LPL and is quantified. The inhibition of the hydrolysis of the MUF oleate is a measure of the inhibition of the activity of the LPL and therefore the lipogenesis.
[formula] wherein MUF test substance=MUF concentration of the wells with test substance and with LPL MUF control=MUF concentration of the wells without test substance, but with LPL MUF control without LPL=MUF concentration of the wells without test substance and without LPL
The IC50 is calculated from the inhibition of the LPL [%] in a series of dilutions of tested samples. This is the concentration at which the activity of the LPL and therefore the lipogenesis is 50% inhibited.

3T3-L1 cells [2] = assay: Lipolysis assay, in vitro on 3T3-L1 cells, free glycerol release; type: cell-based; conditions: Mus musculus; differentiated 3T3-L1 cells, about 20 hours of incubation; mean values from at least 2 independent tests; read-out: Stimulation of lipolysis EC50
Method: 3T3-L1 cells (mouse embryonic fibroblast-like adipocyte cell line) are seeded in a 48-well plate with collagen I-coating in a concentration of 3×10^4 cells/well. The cultivation and differentiation of the cells takes place analogously to the details in Example 2 (adipogenesis assay).
Various concentrations of the test substances are applied to the cells in DMEM, with bovine serum albumen added. After about 20 hours of incubation, the quantification of free glycerol in the supernatant of the cells takes place, which is released by the cells after hydrolysis of triglycerides in the cells and is a measure of the lipolysis of the cells. The quantification of the free glycerol is carried out based on an enzymatic method with a free glycerol reagent.
(§2) The stimulation of the lipolysis in the presence of test substances is calculated according to the following equation:
[formula] wherein A test substance=absorption of the wells with test substance and with cells A test substance without cells=absorption of the wells with test substance without cells (absorption control) A control=absorption of the wells without test substance, but with cells A control without cells=absorption of the wells without test substance and without cells
The EC50 is calculated from the lipolysis stimulation [%] in a series of dilutions of tested samples. This is the concentration at which the lipolysis is 50% stimulated.

pancreatic lipase (PL) = molecular target: T2, pancreatic lipase (PL) (Sus scrofa, UniProt P00591); assay: Inhibition of PL, MUF oleate hydrolysis; type: biochemical; conditions: mean values of at least 2 independent tests
T2 construct: purchased Sigma-Aldrich
T2 sequence (P00591 1-450): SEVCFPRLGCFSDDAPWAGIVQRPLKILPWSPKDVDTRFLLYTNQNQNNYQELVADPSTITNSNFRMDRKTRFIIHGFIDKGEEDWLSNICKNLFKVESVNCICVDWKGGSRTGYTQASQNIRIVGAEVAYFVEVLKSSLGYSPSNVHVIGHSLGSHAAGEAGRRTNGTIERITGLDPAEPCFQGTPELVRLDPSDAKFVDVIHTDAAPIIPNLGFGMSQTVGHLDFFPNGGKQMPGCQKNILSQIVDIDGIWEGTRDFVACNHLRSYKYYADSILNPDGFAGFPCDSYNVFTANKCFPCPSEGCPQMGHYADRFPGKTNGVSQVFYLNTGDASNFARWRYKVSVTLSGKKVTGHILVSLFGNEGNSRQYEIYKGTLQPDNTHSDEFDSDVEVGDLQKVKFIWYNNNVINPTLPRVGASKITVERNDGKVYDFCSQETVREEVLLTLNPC
Text: as §1
PL (Sigma-Aldrich), in the presence of test substances in different use concentrations has methylumbelliferyl oleate (MUF oleate) added as a substrate. Fluorescent methylumelliferon (MUF), is produced by hydrolysis of the MUF oleate by PL and is quantified. The inhibition of the hydrolysis of the MUF oleate is a measure of the inhibition of activity of the PL.
[formula] wherein MUF test substance=MUF concentration of the wells with test substance and with PL MUF control=MUF concentration of the wells without test substance, but with PL MUF control without PL=MUF concentration of the wells without test substance and without PL
The IC50 is calculated from the inhibition of the PL [%] in a series of dilutions of tested samples. This is the concentration, at which the activity of the PL is 50% inhibited.

[3] = test system: ex vivo pig skin model including subcutis fat layer; assay: Lipolysis assay, ex vivo pig skin model, free glycerol release; type: cell-based; conditions: conc. 0.1% in cosmetic test preparation, topical on ex vivo pig skin, 24 hours, versus placebo
Text: Full thickness pig skin patches (pig skin model including subcutis fat layer as described in EP 1 939 279) are excised from the dorsal part of young pig slaughtered for meat. The ex vivo pig skin models have a size of 7×3 mm (diameter×height). They are placed on a titanium grid dipped in culture medium. On top of the skin samples formulations are applied. In parallel to a cosmetic test preparation containing one or more compounds of formula (I) a placebo preparation without any compound of formula (I) is applied as reference (blank).
After 24 hours of incubation, the quantification of free glycerol in the medium surrounding the pig skin models was performed. The glycerol is released by the cells after hydrolysis of triglycerides in the cells of the adipose tissue and is a measure of the lipolysis of the pig skin models. The quantification of the free glycerol is carried out based on an enzymatic method with a free glycerol reagent.
Cosmetic Test Preparation:
Phases A and B are heated to 70° C. separately. Pemulen TR1 as well as Ultrez-21 are dispersed in phase B when heated to 70° C. Phase B/C is added to phase A by mixing with an Ultra Turrax, followed by emulsifying. Phase D is slowly added to phase A/B/C using a paddle mixer and a pH 5.5-6 is adjusted. The formulation is cooled down while mixing with a paddle mixer. Phase E is prepared by dissolving one or more compounds of formula (I) in Hydrolite-5. Subsequently, phase E is added to the mixture of phase A-D.
as §2
[formula] wherein A test substance=absorption of the wells with medium of ex vivo skin models, on which the formulation containing the test substance was applied A placebo=absorption of the wells with medium of ex vivo skin models, on which the placebo without test substance was applied

Row | Structure (SMILES) | IC50 (3T3 cells) | IC50 (3T3-L1 cells [1]) | IC50 (lipoprotein lipase (LPL)) | EC50 (3T3-L1 cells [2]) | IC50 (pancreatic lipase (PL)) | Stimulation of lipolysis [3]
1 | CCC(C)NC(=O)OC1CC(C)CC(C)(C)C1 (centres unmarked) [BIO1844, sec-Butyl-carbamic acid 3,3,5-trimethyl-cyclohexyl ester] | 478 µM | 89 µM | 720 µM | 210 µM | 350 µM | 
2 | CCCCNC(=O)OC1CC(C)CC(C)(C)C1 (centres unmarked) [BIO1616, Butyl-carbamic acid 3,3,5-trimethyl-cyclohexyl ester] | 220 µM | 120 µM | 1020 µM | 450 µM | 900 µM | 
3 | CCc1ccc(NC(=O)OC2CC(C)CC(C)C2)cc1 (centres unmarked) [BIO1823, (4-Ethyl-phenyl)-carbamic acid 3,5-dimethyl-cyclohexyl ester] | 1390 µM | 62 µM |  | 460 µM |  | 28%
